“Also recorded” adds a separate entry of the source.
How the values were obtained:
[1] = tested on: HUVEC, human umbilical vein endothelial cells (primary cells); test: Growth inhibition experiments (MTT, 5 d), HUVEC; format: cell-based; details: Table 1
Text: (§1) With primary cells (HUVEC, human umbilical vein endothelial cells) and the fibroblast cell line MRC5 this is not the case. Whereas chondramides A˜C are comparably active on both, cancer and non-cancerous cells, brominated chondramide C3 analogs are on average by factor 2-4 less toxic for non-cancerous cells. Accordingly they show a higher selectivity.
(§2) Cell lines were obtained from the American Type Culture Collection (ATCC) and the German Collection of Microorganisms and Cell Cultures (Deutsche Sammlung für Mikroorganismen and Zellkulturen, DSMZ), and HUVEC (single donor) were purchased from PromoCell. Cells were cultured under the conditions recommended by the respective depositor in a standard humidified incubator at 37° C. with 5% CO2.
(§3) Cells were seeded at 6×10^3 cells per well of 96-well plates (Corning CellBind®) in 180 μl complete medium and directly treated with chondramides dissolved in methanol in a serial dilution. Each compound was tested in duplicate for 5 d, as well as the internal methanol control. After 5 d incubation, 20 μl of 5 mg/ml MTT (Mosmann, T. (1983). Rapid Colorimetric Assay for Cellular Growth and Survival: Application to Proliferation and Cytotoxicity Assays. J. Immunol. Meth. 65, 55-63) in PBS was added per well and it was further incubated for 2 h at 37° C. The medium was then discarded and cells were washed with 100 μl PBS before adding 100 μl 2-propanol/10 N HCl (250:1) in order to dissolve formazan granules. The absorbance at 570 nm was measured using a microplate reader (EL808, Bio-Tek Instruments Inc.), and cell viability was expressed as percentage relative to the respective methanol control. GI50 values were obtained by sigmoidal curve fitting. Testing of fractions was performed likewise using 1.2×10^4 cells per well. Samples were dissolved in cell culture medium and cells were treated for 2 d before adding MTT. Viability was expressed relative to the untreated control.

[2] = tested on: multidrug resistant (MDR) KB-V.1 cell line; test: Growth inhibition experiments (MTT, 5 d), KB-V.1; format: cell-based; details: Table 1
Procedure: Cancer Inst. 90, 1559-1563). […] The same applies for most novel derivatives, solely a hydroxyl group at C2′ of the polyketide segment instead of methoxy or simply hydrogen leads to an approximately 10-fold reduced potency. GI50 values of glycosylated derivatives were not determinable precisely in the assay's concentration range.
as §3

[3] = tested on: panel of cell lines derived from various origins and tissues (cancer cell lines, non-cancerous cell lines, primary cells); test: Growth inhibition experiments (MTT, 5 d), panel of cell lines; format: cell-based; details: for growth inhibitory activity in cell lines (in words, compared to chondramides A~C / other derivatives): GI50-based comparison, panel of cell lines
Procedure: First, the compounds were tested on a small panel of cell lines derived from various origins and tissues. GI50 values were compared to those determined using chondramides A˜C (see Table 1).
as §2, §3
These compounds were profiled regarding their growth inhibitory potential in a panel of cancer cell lines. Natural chondramide A was used as reference:
Biological evaluation of group A derivatives. GI50 values [nM] were determined in a small panel of cancer cell lines.

[4] = molecular target: T1, pyrene-labeled rabbit muscle actin (Oryctolagus cuniculus, UniProt P68135); test: Actin polymerization assay (pyrene actin fluorescence); format: biochemical; details: 20 μM derivative, 5 μM pyrene actin, non-polymerizing buffer, followed over 85 min
T1 construct: pyrene-labeled rabbit muscle actin; purchased Cytoskeleton, Inc; host or cells: rabbit muscle (tissue-derived; inferred from the name)
Procedure: A final concentration of 20 μM for each derivative was chosen and polymerization was followed over 85 min.
Fluorescence-based actin polymerization assays were performed using pyrene muscle actin (Cytoskeleton, Inc.) according to the supplier's protocol. Chondramides were dissolved in non-polymerizing buffer (5 mM Tris-HCl pH 8.0, 0.2 mM CaCl2, 0.2 mM ATP, 1 mM DTT) and mixed with pyrene actin diluted in the same buffer to give a final concentration of 20 μM chondramide and 5 μM actin. Samples were prepared in black, low-volume 384-well plates (Corning, NBS™ surface). The fluorescence at 405 nm (excitation at 360 nm) was scanned every 30 s for 85 min at 37° C. on a microplate reader (Spectramax M5^e, Molecular Devices). Experiments were performed in duplicates and the average relative fluorescence of polymerizing pyrene actin is given. Slopes were calculated in the linear range of kinetic measurements.

[5] = tested on: KB-3.1: human cervical carcinoma; test: Growth inhibition experiments (GI50), KB-3.1; format: cell-based; details: Table 1; KB-3.1
[6] = tested on: HCT-116 colon carcinoma cell line; test: Growth inhibition experiments (MTT, 5 d), HCT-116; format: cell-based, human; details: Table 1; HCT-116; read-out: GI50 values HCT-116
Procedure: as §3

[7] = tested on: fibroblast cell line MRC5; test: Growth inhibition experiments (MTT, 5 d), MRC5; format: cell-based, human; details: Table 1
Procedure: as §1, §3

L-929 = test: Growth inhibition experiments (GI50), L-929; format: cell-based; details: Table 1
[8] = tested on: human U-2 OS osteosarcoma cell line; test: Growth inhibition experiments (MTT, 5 d), U-2 OS; format: cell-based; details: Table 1; U-2 OS; read-out: GI50 values U-2 OS
Procedure: as §3

Row | Structure (SMILES) | GI50 values HUVEC [1] | GI50 values KB-V.1 [2] | growth inhibitory activity in cell lines (in words, compared to chondramides A~C / other derivatives) [3] | actin-polymerizing effect (G-actin polymerization in vitro) [4] | GI50 values KB-3.1 [5] | GI50 [1] | GI50 [6] | GI50 [7] | GI50 (L-929) | GI50 [8] | GI50 values on human cancer cell lines ([3]; human cancer cell lines, cell-based studies) | melting point
1 | COC1C(=O)OC(C)C(C)C=C(C)CC(C)C(=O)NC(C)C(=O)N(C)C(Cc2c(Cl)[nH]c3ccccc23)C(=O)NC1c1ccc(OC2OC(C(=O)O)C(O)C(O)C2O)c(Cl)c1 (centres unmarked) [Chondramide A10] | w.a. | w.a. | significantly reduced | slow increase in G-actin polymerization; also recorded: partly restore the ability to polymerize actin | w.a. | – | – | – | – | – | – | –
2 | COC1C(=O)OC(C)C(C)C=C(C)CC(C)C(=O)NC(C)C(=O)N(C)C(Cc2c[nH]c3ccccc23)C(=O)NC1c1ccc(O)c(Cl)c1 (centres unmarked) [Chondramide A3] | – | 85.7 ± 1.4 nM | comparable to chondramides A˜C | significantly reduced actin-polymerizing effect | 63.5 ± 12.6 nM | 50.5 ± 5.6 nM | 28.6 ± 3.9 nM | 38 ± 2.8 nM | 72.8 ± 3.6 nM | 46.7 ± 6.5 nM | – | –
3 | COC1C(=O)OC(C)C(C)C=C(C)CC(C)C(=O)NC(C)C(=O)N(C)C(Cc2c[nH]c3ccccc23)C(=O)NC1c1ccc(O)c(Br)c1 (centres unmarked) [Bromo-Chondramide A3] | – | 11.2 ± 0.4 nM | – | quickly polymerizes G-actin | 74.5 ± 14.2 nM | 32.7 ± 2.9 nM | 42.9 ± 3.2 nM | 44.5 ± 4.9 nM | 69.4 ± 1.5 nM | 37.7 ± 2.8 nM | low nanomolar range | –
4 | COC1C(=O)OC(C)C(C)C=C(C)CC(C)C(=O)NC(C)C(=O)N(C)C(Cc2c(Cl)[nH]c3ccccc23)C(=O)NC1c1ccc(OP(=O)(O)O)c(Cl)c1 (centres unmarked) [Chondramide A8] | – | 58.1 ± 4.0 nM | comparable to chondramides A˜C | significantly reduced actin-polymerizing effect | 13.4 ± 3.0 nM | 24.1 ± 7.9 nM | 49.3 ± 7.6 nM | 7.6 ± 4.7 nM | 56.2 ± 12.5 nM | 33.2 ± 3.4 nM | – | –
5 | C/C1=C\CCOC(=O)C[C@H](c2ccc(O)c(Cl)c2)NC(=O)[C@@H](Cc2c(Cl)[nH]c3ccccc23)N(C)C(=O)[C@H](C)NC(=O)CC1 | – | – | – | – | – | – | – | – | – | – | – | 135 to 139 °C
6 | CCC1OC(=O)CC(c2ccc(O)cc2)NC(=O)C(Cc2c[nH]c3ccccc23)N(C)C(=O)C(C)NC(=O)C(C)CC(C)=CC1C (centres unmarked) [Propionyl-Chondramide C1] | – | 22.7 ± 8.3 nM | comparable to chondramides A˜C | significantly reduced actin-polymerizing effect | 56.3 ± 9.6 nM | 54.6 ± 5.5 nM | 42.1 ± 3.2 nM | 71.9 ± 4.1 nM | 30 ± 7.7 nM | 15.1 ± 1.1 nM | – | –
7 | C/C1=C\CCOC(=O)C[C@H](c2ccc(O)c(Cl)c2)NC(=O)[C@@H](Cc2c[nH]c3ccccc23)N(C)C(=O)[C@H](C)NC(=O)CC1 | – | – | – | – | – | – | – | – | – | – | – | 122 to 126 °C
8 | C/C1=C\CCOC(=O)C[C@H](c2ccc(O)c(Br)c2)NC(=O)[C@@H](Cc2c[nH]c3ccccc23)N(C)C(=O)[C@H](C)NC(=O)CC1 | – | – | – | – | – | – | – | – | – | – | – | 129 to 132 °C
9 | COC1C(=O)OC(C)C(C)C=C(C)CC(C)C(=O)NC(C)C(=O)N(C)C(Cc2c(Cl)[nH]c3ccccc23)C(=O)NC1c1ccc(OP(=O)(O)O)cc1 (centres unmarked) [Chondramide A6] | – | 23.1 ± 1.5 nM | comparable to chondramides A˜C | significantly reduced actin-polymerizing effect | 49.3 ± 7.6 nM | 67.7 ± 10.4 nM | 60.9 ± 3.5 nM | 25.9 ± 1.5 nM | 44.6 ± 5.5 nM | 51.6 ± 4.6 nM | – | –

From patent US20150291658A1, “NOVEL CHONDRAMIDE DERIVATIVES” (HELMOLTZ-ZENTRUM FÜR INFEKTIONSFORSCHUNG, priority 2012, published 2015)
